Data reported in US20160122342A1, “ENHANCER OF ZESTE HOMOLOG 2 INHIBITORS” (GLAXOSMITHKLINE INTELLECTUAL PROPERTY (NO.2) LIMITED, priority 2013, published 2016).
Structures can show the parent of a compound that is named as a salt. Where two headings read alike, the source gives them in different places.

Experiments:
[1] = rcm bond, Grubbs II (10 mol%), DCM, 25.0 °C
[2] = rcm bond
[3] = target: T1, EZH2 within the PRC2 complex (Homo sapiens, UniProt Q15910); assay: Assay Protocol 2: EZH2 methyltransferase scintillation proximity assay, biotinylated histone H3 peptide substrate; type: biochemical; settings: SPA, 3H-SAM, biotinylated unmethylated histone H3K27 peptide substrate, 5-member PRC2 complex
T1 construct: FLAG; made in house; host or cells: Sf9 cells
Method in brief: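 PRC2-complexed EZH2 was run in 50 mM Tris-HCl pH 8, 2 mM MgCl2, 4 mM DTT and 0.001% Tween-20. It was added to a 2× mix of 10 uM biotinylated H3K27 peptide, 0.15 uM 3H-SAM and 2.85 uM cold SAM with streptavidin SPA beads. After 60 min at room temperature and a cold-SAM quench, IC50 was fitted from percent inhibition versus DMSO.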

[4] = target: T1, EZH2 within the PRC2 complex; assay: Assay Protocol 1: EZH2 methyltransferase scintillation proximity assay, mononucleosome substrate; type: biochemical; settings: Assay Protocol 1; SPA, 3H-SAM, Histone H3 of mononucleosome purified from HeLa cells; 5-member PRC2 complex; read-out: EZH2 IC50
Experimental: Compounds contained herein were evaluated for their ability to inhibit the methyltransferase activity of EZH2 within the PRC2 complex. […] Mononucleosomes were captured on SPA beads and the resulting signal is read on a ViewLux plate reader. • 1. Prepare 10 mM stock of compounds from solid in 100% DMSO. • 2. […] Dispense 100 nL of compound from the dilution plate into reaction plates (Grenier Bio-One, 384-well, Cat#784075). Prepare the following solutions: • 1. 50 mM Tris-HCl, pH 8: Per 1 L of base buffer, combine 1 M Tris-HCl, pH 8 (50 mL) and distilled water (950 mL). • 2. 1× Assay Buffer: […] SPA Bead Suspension: […] Per 10 mL of 2× Substrate Solution, combine 1× Assay Buffer (9728.55 uL), 800 ug/mL mononucleosomes (125 uL), 1 mM cold SAM (4 uL), and 7.02 uM 3H-SAM (142.45 uL; 0.55 mCi/mL) to provide a final concentration of 5 ug/mL nucleosomes, 0.2 uM cold SAM, and 0.05 uM 3H-SAM. • 6. 2.67× Quench/Bead Mixture: Per 10 mL of 2.67× Quench/Bead Mixture, combine ddH2O (9358 uL), 10 mM cold SAM (267 uL), 40 mg/mL Bead Suspension (375 uL) to provide a final concentration of 100 uM cold SAM and 0.5 mg/mL SPA beads. • 1. Dispense 100 nL/well of 100× Compound to test wells (as noted above). • 2. […] • 1. Dispense 5 uL/well of 1× Assay Buffer to column 18 (low control reactions). • 2. Dispense 5 uL/well of 2× Enzyme Solution to columns 1-17, 19-24. • 3. Spin assay plates for ˜1 minute at 500 rpm. • 4. Stack the assay plates, covering the top plate. • 5. Incubate the compound/DMSO with the enzyme for 30 minutes at room temperature. • 6. Dispense 5 uL/well of 2× Substrate Solution to columns 1-24. • 7. Spin assay plates for ˜1 minute at 500 rpm. • 8. Stack the assay plates, covering the top plate. • 9. Incubate the assay plates at room temperature for 1 hour. • 1. Dispense 5 uL/well of the 3× Quench/Bead Mixture to columns 1-24. • 2. Seal the top of each assay plate with adhesive TopSeal. • 3. Spin assay plates for ˜1 minute at 500 rpm. • 4. […] • 1. Read the assay plates on the Viewlux Plate Reader utilizing the 613 nm emission filter with a 300 s read time. Reagent addition can be done manually or with automated liquid handler. The final DMSO concentration in this assay is 1%. The positive control is in column 6; negative control is in column 18. Final starting concentration of compounds is 100 μM. Percent inhibition was calculated relative to the DMSO control for each compound concentration and the resulting values were fit using standard IC50 fitting parameters within the ABASE data fitting software package.

[5] = from C=CCCc1cc(C)nc(OC)c1CNC(=O)c1ccnc(Cl)c1CC=C, 12-membered ring, Grubbs II (10 mol%), DCM, 10.6 mM, 16.0 h
[6] = from C=CCCc1cc(C)nc(OC)c1CNC(=O)c1cccc(N(CC)C2CCOCC2)c1CC=C, 12-membered ring, Grubbs II (2 x 20 mol%), DCM, 25.3 mM, 25.0 °C, 36.0 h

T1 sequence (Q15910 whole entry): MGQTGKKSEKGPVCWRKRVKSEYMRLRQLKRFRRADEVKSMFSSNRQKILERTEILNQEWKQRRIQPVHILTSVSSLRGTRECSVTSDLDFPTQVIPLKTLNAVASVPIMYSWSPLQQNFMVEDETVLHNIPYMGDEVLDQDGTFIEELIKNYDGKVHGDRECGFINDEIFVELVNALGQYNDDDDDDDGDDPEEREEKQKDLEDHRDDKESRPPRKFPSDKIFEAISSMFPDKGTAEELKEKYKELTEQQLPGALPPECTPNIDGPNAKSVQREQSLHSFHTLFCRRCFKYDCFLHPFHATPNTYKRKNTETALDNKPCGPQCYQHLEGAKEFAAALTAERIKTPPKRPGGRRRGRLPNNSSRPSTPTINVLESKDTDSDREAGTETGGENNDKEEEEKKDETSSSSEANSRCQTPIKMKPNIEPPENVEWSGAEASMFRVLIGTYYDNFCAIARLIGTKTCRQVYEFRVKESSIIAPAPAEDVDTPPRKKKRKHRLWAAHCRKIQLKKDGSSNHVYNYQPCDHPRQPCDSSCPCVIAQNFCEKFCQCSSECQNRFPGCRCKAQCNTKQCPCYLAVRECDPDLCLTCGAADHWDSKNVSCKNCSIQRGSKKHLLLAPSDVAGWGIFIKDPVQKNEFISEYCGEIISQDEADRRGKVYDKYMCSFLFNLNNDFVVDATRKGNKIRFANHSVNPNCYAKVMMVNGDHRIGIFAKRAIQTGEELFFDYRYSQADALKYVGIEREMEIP
T1 sequence (O75530 whole entry partner): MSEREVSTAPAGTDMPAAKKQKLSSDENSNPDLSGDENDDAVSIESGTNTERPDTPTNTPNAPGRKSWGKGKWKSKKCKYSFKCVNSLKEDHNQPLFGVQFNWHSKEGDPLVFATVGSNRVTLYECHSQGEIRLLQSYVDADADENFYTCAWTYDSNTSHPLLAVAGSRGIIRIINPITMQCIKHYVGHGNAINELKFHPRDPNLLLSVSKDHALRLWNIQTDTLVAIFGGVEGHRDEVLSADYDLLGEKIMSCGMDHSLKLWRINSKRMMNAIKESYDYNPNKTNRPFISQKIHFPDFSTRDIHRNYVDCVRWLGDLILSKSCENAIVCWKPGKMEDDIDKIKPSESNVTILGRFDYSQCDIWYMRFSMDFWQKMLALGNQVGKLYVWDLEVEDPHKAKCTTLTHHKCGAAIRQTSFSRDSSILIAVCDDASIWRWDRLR
T1 sequence (Q15022 whole entry partner): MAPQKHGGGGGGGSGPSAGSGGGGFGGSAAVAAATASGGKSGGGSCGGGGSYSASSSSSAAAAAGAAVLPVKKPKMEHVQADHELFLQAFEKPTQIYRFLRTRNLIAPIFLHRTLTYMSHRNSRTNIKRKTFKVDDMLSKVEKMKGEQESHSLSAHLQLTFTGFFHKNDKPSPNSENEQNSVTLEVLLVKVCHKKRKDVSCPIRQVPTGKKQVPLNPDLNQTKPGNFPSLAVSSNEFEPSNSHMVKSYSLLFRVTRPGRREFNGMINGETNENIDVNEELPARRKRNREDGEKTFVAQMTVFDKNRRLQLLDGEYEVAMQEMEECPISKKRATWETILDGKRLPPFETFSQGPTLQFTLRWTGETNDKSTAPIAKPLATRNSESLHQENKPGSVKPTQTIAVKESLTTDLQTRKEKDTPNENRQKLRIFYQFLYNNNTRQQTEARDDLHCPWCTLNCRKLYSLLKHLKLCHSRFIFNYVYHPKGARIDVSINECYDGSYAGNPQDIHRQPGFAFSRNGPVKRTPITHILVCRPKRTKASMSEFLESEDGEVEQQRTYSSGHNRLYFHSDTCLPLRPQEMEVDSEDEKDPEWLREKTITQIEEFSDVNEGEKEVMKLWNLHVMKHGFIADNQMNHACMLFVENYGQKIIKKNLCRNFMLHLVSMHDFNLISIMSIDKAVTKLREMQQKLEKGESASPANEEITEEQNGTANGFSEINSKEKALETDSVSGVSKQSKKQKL
T1 sequence (Q09028 whole entry partner): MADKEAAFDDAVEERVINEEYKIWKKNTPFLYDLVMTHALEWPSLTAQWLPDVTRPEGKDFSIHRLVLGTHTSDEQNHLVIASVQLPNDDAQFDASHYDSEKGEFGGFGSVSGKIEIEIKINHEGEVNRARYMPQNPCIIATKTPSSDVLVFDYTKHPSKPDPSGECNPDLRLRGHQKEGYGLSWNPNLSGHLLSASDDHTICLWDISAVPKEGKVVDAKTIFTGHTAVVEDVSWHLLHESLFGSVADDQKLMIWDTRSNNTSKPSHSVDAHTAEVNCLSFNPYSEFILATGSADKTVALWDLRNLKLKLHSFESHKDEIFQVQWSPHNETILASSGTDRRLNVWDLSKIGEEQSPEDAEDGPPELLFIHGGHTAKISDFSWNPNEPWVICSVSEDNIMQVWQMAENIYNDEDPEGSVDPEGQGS
T1 sequence (Q6ZN18 whole entry partner): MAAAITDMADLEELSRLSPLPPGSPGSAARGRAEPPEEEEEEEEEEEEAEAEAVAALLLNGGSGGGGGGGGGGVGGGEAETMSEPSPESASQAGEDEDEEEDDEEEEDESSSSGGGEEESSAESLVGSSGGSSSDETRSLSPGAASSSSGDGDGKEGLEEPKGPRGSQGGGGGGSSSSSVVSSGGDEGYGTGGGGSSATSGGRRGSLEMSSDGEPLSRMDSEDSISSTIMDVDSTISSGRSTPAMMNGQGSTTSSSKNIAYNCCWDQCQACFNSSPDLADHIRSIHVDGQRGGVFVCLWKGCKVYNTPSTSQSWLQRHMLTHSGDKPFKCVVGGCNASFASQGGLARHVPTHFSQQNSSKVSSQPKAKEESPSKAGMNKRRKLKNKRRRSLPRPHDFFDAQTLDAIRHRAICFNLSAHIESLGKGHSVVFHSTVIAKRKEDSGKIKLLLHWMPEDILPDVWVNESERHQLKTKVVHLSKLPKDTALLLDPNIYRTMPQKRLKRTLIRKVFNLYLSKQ

Compound | IC50 [3] | IC50 [4] | further results
COc1cc(Cl)cc2c1CC=CCCCc1cc(C)nc(OC)c1CNC2=O | – | – | ring closure, isolated yield ([1]; from C=CCCCc1cc(C)nc(OC)c1CNC(=O)c1cc(Cl)cc(OC)c1CC=C, 13-membered ring, 19.6 mM, 16.0 h): 76%
CCN(c1cccc2c1C/C=C\Cc1cc(C)nc(OC)c1CNC2=O)[C@H]1CC[C@H](NC(=O)OC(C)(C)C)CC1 | – | – | ring closure, yield after HPLC ([2]; from C=CCCc1cc(C)nc(OC)c1CNC(=O)c1cccc(N(CC)[C@H]2CC[C@H](NC(=O)OC(C)(C)C)CC2)c1CC=C, 11-membered ring, Hoveyda-Grubbs (17.5 mol%), DCE, 16.0 mM, 50.0 °C): 13.7%
COc1cc(Cl)cc2c1CC=CCCc1cc(C)nc(OC)c1CNC2=O | – | – | ring closure, isolated yield ([1]; from C=CCCc1cc(C)nc(OC)c1CNC(=O)c1cc(Cl)cc(OC)c1CC=C, 12-membered ring, 19.4 mM, 16.0 h): 69%
CCN(c1cccc2c1C/C=C\CNCc1cc(C)[nH]c(=O)c1CNC2=O)C1CCOCC1 [Example 39, (Z)-11-(ethyl(tetrahydro-2H-pyran-4-yl)amino)-3-methyl-5,6,7,10,16,17-hexahydro-1H-benzo[h]pyrido[4,3-c][1,6]diazacyclotridecine-1,15(2H)-dione] | 2000 nM | 1260 nM | –
CCN(c1cccc2c1C/C=C/CCc1cc(C)[nH]c(=O)c1CNC2=O)[C@H]1CC[C@H](N(C)C)CC1 [Example 37, (E)-10-((trans-4-(dimethylamino)cyclohexyl)(ethyl)amino)-3-methyl-5,6,15,16-tetrahydrobenzo[c]pyrido[4,3-j][1]azacyclododecine-1,14(2H,9H)-dione] | 126 nM | 50 nM | –
COc1nc(C)cc2c1CNC(=O)c1ccnc(Cl)c1C/C=C/CC2 | – | – | ring closure, yield after HPLC [2, 5]: 37.3%
CCN(c1cccc2c1C/C=C/CNCc1cc(C)[nH]c(=O)c1CNC2=O)C1CCOCC1 [Example 38, (E)-11-(ethyl(tetrahydro-2H-pyran-4-yl)amino)-3-methyl-5,6,7,10,16,17-hexahydro-1H-benzo[h]pyrido[4,3-c][1,6]diazacyclotridecine-1,15(2H)-dione] | 158 nM | 100 nM | –
CCN(c1cccc2c1CC=CCOCc1cc(C)nc(OC)c1CNC2=O)C1CCOCC1 | – | – | ring closure, isolated yield ([1]; from C=CCOCc1cc(C)nc(OC)c1CNC(=O)c1cccc(N(CC)C2CCOCC2)c1CC=C, 13-membered ring, 20.0 mM, 22.0 h): 54.7%
Cc1cc2c(c(=O)[nH]1)CNC(=O)c1cc(Cl)cc(O[C@H]3CC[C@H](N(C)C)CC3)c1CCCCC2 [Example 3, 12-chloro-10-((trans-4-(dimethylamino)cyclohexyl)oxy)-3-methyl-6,7,8,9,15,16-hexahydrobenzo[c]pyrido[4,3-j][1]azacyclododecine-1,14(2H,5H)-dione] | 158 nM | 100 nM | –
CCN(c1cccc2c1C/C=C/CCc1cc(C)[nH]c(=O)c1CNC2=O)C1CCN(C(CO)CO)CC1 [Example 51, (E)-10-((1-(1,3-dihydroxypropan-2-yl)piperidin-4-yl)(ethyl)amino)-3-methyl-5,6,15,16-tetrahydrobenzo[c]pyrido[4,3-j][1]azacyclododecine-1,14(2H,9H)-dione] | 398 nM | 200 nM | –
CCN(c1cccc2c1C/C=C\CCc1cc(C)nc(OC)c1CNC2=O)C1CCOCC1 | – | – | ring closure, yield after HPLC [2, 6]: 23%
CCN(c1cccc2c1C/C=C/CCc1cc(C)nc(OC)c1CNC2=O)C1CCOCC1 | – | – | ring closure, yield after HPLC [2, 6]: 58%
CCN(c1cccc2c1CC=CCc1cc(C)[nH]c(=O)c1CNC2=O)C1CCNCC1 [Example 54, 9-(ethyl(piperidin-4-yl)amino)-3-methyl-5,8,14,15-tetrahydro-1H-benzo[c]pyrido[4,3-i][1]azacycloundecine-1,13(2H)-dione] | 10000 nM | 3980 nM | –
CCN(c1cccc2c1C/C=C/CCc1cc(C)[nH]c(=O)c1CNC2=O)C1CCNCC1 [Example 31, (E)-10-(ethyl(piperidin-4-yl)amino)-3-methyl-5,6,15,16-tetrahydrobenzo[c]pyrido[4,3-j][1]azacyclododecine-1,14(2H,9H)-dione] | 200 nM | 13 nM | –
CCN(c1cccc2c1C/C=C/CCc1cc(C)nc(OC)c1CNC2=O)C1CCC(F)(F)CC1 | – | – | ring closure, yield after HPLC ([2]; from C=CCCc1cc(C)nc(OC)c1CNC(=O)c1cccc(N(CC)C2CCC(F)(F)CC2)c1CC=C, 12-membered ring, Grubbs II (15 mol%), DCM, 32.1 mM, 25.0 °C, 16.0 h): 62%
Cc1cc2c(c(=O)[nH]1)CNC(=O)c1cc(Cl)cc(O[C@H]3CC[C@H](N)CC3)c1C/C=C/CC2 [Example 1, (E)-10-((trans-4-aminocyclohexyl)oxy)-12-chloro-3-methyl-5,6,15,16-tetrahydrobenzo[c]pyrido[4,3-j][1]azacyclododecine-1,14(2H,9H)-dione hydrochloride] | 100 nM | 32 nM | –
CCN(c1cccc2c1C/C=C/CCc1cc(C)[nH]c(=O)c1CNC2=O)[C@H]1CC[C@H](N)CC1 [Example 36, (E)-10-((trans-4-aminocyclohexyl)(ethyl)amino)-3-methyl-5,6,15,16-tetrahydrobenzo[c]pyrido[4,3-j][1]azacyclododecine-1,14(2H,9H)-dione] | 126 nM | 16 nM | –
COc1nc(C)cc2c1CNC(=O)c1ccnc(Cl)c1C/C=C\CC2 | – | – | ring closure, yield after HPLC [2, 5]: 18.3%
CCN(c1cccc2c1C/C=C/CCc1cc(C)[nH]c(=O)c1CNC2=O)C1CCN(CCC(F)(F)F)CC1 [Example 43, (E)-10-(ethyl(1-(3,3,3-trifluoropropyl)piperidin-4-yl)amino)-3-methyl-5,6,15,16-tetrahydrobenzo[c]pyrido[4,3-j][1]azacyclododecine-1,14(2H,9H)-dione] | 200 nM | 63 nM | –
(E)-11-(ethyl(1-isopropylpiperidin-4-yl)amino)-3-methyl-5,6,7,10,16,17-hexahydro-1H-benzo[c]pyrido[4,3-k][1]azacyclotridecine-1,15(2H)-dione [Example 42] | 158 nM | 20 nM | –
CCN(c1cccc2c1C/C=C/CCc1cc(C)[nH]c(=O)c1CNC2=O)C1CCN(CCO)CC1 [Example 35, (E)-10-(ethyl(1-(2-hydroxyethyl)piperidin-4-yl)amino)-3-methyl-5,6,15,16-tetrahydrobenzo[c]pyrido[4,3-j][1]azacyclododecine-1,14(2H,9H)-dione] | 200 nM | 40 nM | –
CCN(c1cccc2c1C/C=C/CCCc1cc(C)[nH]c(=O)c1CNC2=O)C1CCOCC1 [Example 19, (E)-11-(ethyl(tetrahydro-2H-pyran-4-yl)amino)-3-methyl-5,6,7,10,16,17-hexahydro-1H-benzo[c]pyrido[4,3-k][1]azacyclotridecine-1,15(2H)-dione] | 79 nM | 40 nM | –
CCN(c1cccc2c1C/C=C/CCCCc1cc(C)[nH]c(=O)c1CNC2=O)C1CCOCC1 [Example 14, (E)-12-(ethyl(tetrahydro-2H-pyran-4-yl)amino)-3-methyl-5,6,7,8,17,18-hexahydrobenzo[c]pyrido[4,3-l][1]azacyclotetradecine-1,16(2H,11H)-dione hydrochloride] | 158 nM | 50 nM | –
CCN(c1cccc2c1C/C=C\CCc1cc(C)[nH]c(=O)c1CNC2=O)C1CCNCC1 [Example 52, (Z)-10-(ethyl(piperidin-4-yl)amino)-3-methyl-5,6,15,16-tetrahydrobenzo[c]pyrido[4,3-j][1]azacyclododecine-1,14(2H,9H)-dione] | 2000 nM | 631 nM | –
